Measured values published in patent US6509359B1, “Pyrrolidin-2-one compounds and their use as neuraminidase inhibitors” (priority 1997, dated 2003).

How the values were obtained:
[1] = biological target: influenza neuraminidase (N2) (Influenza A virus, UniProt P06820); assay: biochemical; format: biochemical, influenza virus Type A
[2] = biological target: Influenza NA Type B B/Lee (Influenza B virus, UniProt P03474); assay: Inhibition of influenza neuraminidase (B/Lee); format: biochemical
[3] = biological target: neuraminidase from the H1N9 strain of influenza (Influenza A virus, UniProt P03472); assay: biochemical
Oral bioavailability = format: in vivo
HA = settings: cited from earlier work
[4] = cited from earlier work

SMILES	IC50 [1]	IC50 [3]	further results
CCC(CC)Nc1cc(C(=O)O)ccc1N1C(=O)CCC1(CN)CO (stereo not shown) [Compound B]	0.04 µM	–	Effectiveness relative to example 8 for the inhibition of influenza neuraminidase (N2) [1]: approximately twice as effective as example 8; IC50 [2]: 49 µM
CCCC(CC)Nc1cc(C(=O)O)ccc1N1C(=O)CCC1(CO)CO (stereo not shown) [Example 9, 1-[4-Carboxy-2-(3-hexylamino)phenyl]-5,5-bis-(hydroxymethyl)pyrrolidin-2-one]	–	116 µM	–
CCC(CC)Nc1cc(C(=O)O)ccc1N1CCCC1=O [Example 7, 1-[4-Carboxy-2-(3-pentylamino)phenyl]pyrrolidin-2-one]	–	220 µM	–
CCC(CC)C(=O)Nc1cc(C(=O)O)ccc1N1C(=O)CCC1(CO)CO [Example 16]	0.82 µM	–	–
CCC(CC)CNc1cc(C(=O)O)ccc1N1C(=O)CCC1(CO)CO [Example 11, 1-{4-Carboxy-2-[3-pentyl)methylaminolphenyl}-5,5-bis-(hydroxymethyl)pyrrolidin-2-one.]	3.5 µM	–	–
O=C(O)c1ccc(N2C(=O)CCC2(CO)CO)cc1 [Example 5, 1-(4-Carboxyphenyl)-5,5-bis-(hydroxymethyl)pyrrolidin-2-one]	–	700 µM	–
O=C(O)c1ccc(N2CCCC2=O)cc1 [Example 1, 1-(4-Carboxyphenyl)pyrrolidin-2-one]	–	> 7000 µM	melting point: 244 to 246 °C
CCC(C)C(=O)Nc1cc(C(=O)O)ccc1N1C(=O)CCC1(CN)CO (stereo not shown) [Example 17, 5-Aminomethyl-1-{[4-carboxy-2-(1-methylpropyl)carbonylamino]phenyl}-5-hydroxymethylpyrrolidin-2-one]	6 µM	–	–
CCCNc1cc(C(=O)O)ccc1N1C(=O)CCC1(CO)CO [Example 12]	15.5 µM	–	–
NCC1CCC(=O)N1c1ccc(C(=O)O)cc1N=C(N)N (stereo not shown) [Example 4, 1-1-{2-{[(Amino)(imino)methyl]amino}-4-carboxyphenyl}-5-(aminomethyl)pyrrolidin-2-one]	–	2600 µM	–
CCC(CC)Nc1cc(C(=O)O)ccc1N1C(=O)CCC1(CO)CCO (stereo not shown) [Example 18, 1-[4-Carboxy-2-(1-ethylpropylamino)phenyl]-5-hydroxyethyl-5-hydroxymethyl-pyrrolidin-2-one]	184 µM	–	–
CCC(CC)Nc1cc(C(=O)O)ccc1N1C(=O)CCC1(CO)CO [Example 8, 1-[4-Carboxy-2-(3-pentylamino)phenyl]-5,5-bis-(hydroxymethyl)pyrrolidin-2-one]	0.071 µM	0.048 µM	IC50 [2]: 93 µM; Oral bioavailability (Oral bioavailability): orally bioavailable
CC(=O)N[C@H]1[C@H]([C@H](O)[C@H](O)CO)OC(C(=O)O)=C[C@@H]1O [DANA, 2-deoxy-2,3-didehydro-N-acetylneuraminic acid]	–	–	Inhibition in vitro (HA): inhibit HA in vitro; Activity in vivo [4]: inactive in vivo
N=C(N)Nc1cc(C(=O)O)ccc1N1C(=O)CCC1(CO)CO [Example 6, 1-{2-{[(Amino)(imino)methyl]amino}-4-carboxyphenyl}-5,5-bis-(hydroxymethyl)-pyrrolidin-2-one]	–	5 µM	–
CCC(C)C(=O)Nc1cc(C(=O)O)ccc1N1C(=O)CCC1(CO)CO (stereo not shown) [Example 15, 1-{[4-Carboxy-2-(1-methylpropyl)carbonylamino]pheny}-5,5-bis(hydroxymethyl)-pyrrolidin-2-one]	0.18 µM	–	–
CCCC(CCC)Nc1cc(C(=O)O)ccc1N1C(=O)CCC1(CO)CO [Example 10, 1-[4-Carboxy-2-(4-heptylamino)phenyl]-5,5-bis-(hydroxymethyl)pyrrolidin-2-one]	8.1 µM	5.5 µM	–
CCC(=O)Nc1cc(C(=O)O)ccc1N1C(=O)CCC1(CO)CO [Example 14, 1-[4-Carboxy-2-(ethylcarbonylamino)phenyl]-5,5-bis(hydroxymethyl)pyrrolidin-2-one]	1.5 µM	–	–
